Results on four compounds are retold here after ChEMBL document CHEMBL3352201, “P21-Activated Kinase 4 (PAK4) Inhibitors as Potential Cancer Therapy” (ACS Med Chem Lett, 2015).

In assay [1] the target is Serine/threonine-protein kinase PAK 4 (Homo sapiens, UniProt O96013). Put plainly: Inhibition of human recombinant PAK4 kinase domain assessed as phosphorylation of FRET peptide substrate at Ser/Thr20 by […] assay.
In assay [2] the target is Serine/threonine-protein kinase PAK 1 (Homo sapiens, UniProt Q13153). Put plainly: Inhibition of human recombinant PAK1 kinase domain assessed as phosphorylation of FRET peptide substrate at Ser/Thr20 by […] assay.

Where only a bound is given, the exact number is not on record here.

Sequence of Serine/threonine-protein kinase PAK 1 (Q13153 whole entry, the tested form may be a part): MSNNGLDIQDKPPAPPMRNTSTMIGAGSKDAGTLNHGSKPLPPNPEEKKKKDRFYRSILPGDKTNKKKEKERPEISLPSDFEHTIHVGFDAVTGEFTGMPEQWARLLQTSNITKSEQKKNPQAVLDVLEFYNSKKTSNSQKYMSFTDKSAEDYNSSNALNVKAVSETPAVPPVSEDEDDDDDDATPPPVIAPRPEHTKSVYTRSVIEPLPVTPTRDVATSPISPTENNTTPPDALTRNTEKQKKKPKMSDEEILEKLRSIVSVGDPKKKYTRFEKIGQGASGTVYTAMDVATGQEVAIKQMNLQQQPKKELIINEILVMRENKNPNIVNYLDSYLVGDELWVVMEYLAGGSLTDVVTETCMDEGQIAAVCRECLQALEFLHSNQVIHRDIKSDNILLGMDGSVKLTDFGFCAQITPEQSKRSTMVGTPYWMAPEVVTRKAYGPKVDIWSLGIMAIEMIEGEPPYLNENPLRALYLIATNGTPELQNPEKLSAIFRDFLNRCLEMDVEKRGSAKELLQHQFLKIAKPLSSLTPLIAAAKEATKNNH
Sequence of Serine/threonine-protein kinase PAK 4 (O96013 whole entry, the tested form may be a part): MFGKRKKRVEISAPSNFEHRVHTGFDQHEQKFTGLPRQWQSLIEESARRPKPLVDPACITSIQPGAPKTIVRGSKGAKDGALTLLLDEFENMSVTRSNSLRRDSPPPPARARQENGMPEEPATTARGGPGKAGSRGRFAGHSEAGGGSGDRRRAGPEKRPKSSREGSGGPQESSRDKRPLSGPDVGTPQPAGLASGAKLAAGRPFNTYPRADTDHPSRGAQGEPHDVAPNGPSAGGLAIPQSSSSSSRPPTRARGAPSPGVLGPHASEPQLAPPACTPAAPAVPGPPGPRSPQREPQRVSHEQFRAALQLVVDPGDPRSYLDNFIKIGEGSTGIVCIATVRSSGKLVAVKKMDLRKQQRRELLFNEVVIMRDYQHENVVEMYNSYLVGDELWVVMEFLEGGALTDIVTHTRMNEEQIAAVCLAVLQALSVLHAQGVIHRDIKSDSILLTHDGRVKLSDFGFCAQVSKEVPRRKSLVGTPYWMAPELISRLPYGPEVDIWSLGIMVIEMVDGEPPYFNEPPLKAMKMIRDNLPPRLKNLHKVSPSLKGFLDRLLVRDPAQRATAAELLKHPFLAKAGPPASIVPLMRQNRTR

For the compound `COCCNc1nc2ccc(C#CC3(O)CCCCC3)cc2n1-c1ccnc(N)n1`, the IC50 (commonly the point on the concentration scale where inhibition reaches its midpoint) in assay [1] amounted to 0.00477 µM.
Take `CCNc1nc2ccc(C#CC(C)(C)O)cc2n1-c1ncnc(N)n1`: the results for the IC50 in assay [1] and in assay [2] were 0.0655 µM and 9.6 µM, respectively.
As for `CCNc1nc2ccc(C#C[C@@](C)(O)c3cc(C)on3)cc2n1-c1ncnc(N)n1`, the IC50 in assay [1] is 0.0053 µM; in assay [2], over 4.5 µM.
Consider `CNc1nc2ccc(C#C[C@@](C)(O)c3cc(C)on3)cc2n1-c1ncnc(N)n1`, for which the figures for the half-maximal inhibitory concentration (IC50) in assay [1] and in assay [2] were 0.0355 µM and over 4.5 µM, respectively.
